# Assay results published in US10780090B2, “Heteroaryl compounds useful as inhibitors of SUMO activating enzyme” (Millennium Pharmaceuticals, Inc., priority 2014, dated 2020).
# pIC50: −log10 of the molar value.
# Biological target: recombinant human SAE enzyme (Homo sapiens (Human), UniProt Q9UBT2)
# Test: SAE HTRF enzyme assay
# Type: biochemical
# Details: for IC50: SAE inhibition, class symbols, legend in nM; for pIC50: class symbols A/B/C; for inhibition at 0.111 µM: read-out: Percent Inhibition
# Method in brief: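 Human SAE (0.11 nM) with 0.5 μM ATP, 0.125 μM Sumo-Flag and 0.01 μM Ubc9-GST in HEPES pH 7.5, 5 mM MgCl2, 250 μM GSH; 105 min at 24 °C. Stopped with EDTA; HTRF read after 2 h with Eu-anti-Flag and APC-anti-GST. Percent inhibition or IC50 reported.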
# [1] = SAE inhibition at compound concentration 0.111 μM
# recombinant human SAE enzyme, sequence (Q9UBT2 whole entry): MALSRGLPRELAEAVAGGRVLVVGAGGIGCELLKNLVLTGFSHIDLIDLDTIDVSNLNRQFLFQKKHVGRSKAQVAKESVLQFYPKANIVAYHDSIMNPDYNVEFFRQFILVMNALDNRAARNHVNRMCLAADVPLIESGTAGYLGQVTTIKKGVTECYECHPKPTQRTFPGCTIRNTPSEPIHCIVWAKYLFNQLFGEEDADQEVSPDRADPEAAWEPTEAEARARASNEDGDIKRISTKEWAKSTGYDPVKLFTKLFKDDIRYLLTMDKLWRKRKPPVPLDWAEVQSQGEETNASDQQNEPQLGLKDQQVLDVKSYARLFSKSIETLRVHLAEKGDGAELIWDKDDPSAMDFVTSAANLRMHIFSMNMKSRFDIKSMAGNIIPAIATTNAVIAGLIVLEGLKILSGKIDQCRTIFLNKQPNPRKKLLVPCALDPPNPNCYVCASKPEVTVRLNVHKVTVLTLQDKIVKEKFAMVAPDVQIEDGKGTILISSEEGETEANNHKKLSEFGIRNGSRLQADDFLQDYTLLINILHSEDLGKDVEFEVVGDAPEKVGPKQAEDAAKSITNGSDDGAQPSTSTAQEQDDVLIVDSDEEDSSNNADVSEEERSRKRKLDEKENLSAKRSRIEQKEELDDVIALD
# recombinant human SAE enzyme, sequence (Q9UBE0 whole entry partner): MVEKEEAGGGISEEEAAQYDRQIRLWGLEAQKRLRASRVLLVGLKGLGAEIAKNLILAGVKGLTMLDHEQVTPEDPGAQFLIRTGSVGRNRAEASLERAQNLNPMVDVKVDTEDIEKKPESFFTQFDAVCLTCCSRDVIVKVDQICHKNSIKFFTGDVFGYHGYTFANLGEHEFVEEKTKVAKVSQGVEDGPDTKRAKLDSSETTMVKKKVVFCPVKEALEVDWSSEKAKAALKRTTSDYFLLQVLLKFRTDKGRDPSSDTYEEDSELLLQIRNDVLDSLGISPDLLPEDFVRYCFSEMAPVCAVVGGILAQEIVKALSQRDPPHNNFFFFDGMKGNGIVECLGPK
SMILES,Percent Inhibition [1] [%],IC50 [nM],Percent Inhibition (Concentration 0.111 μM),pIC50,inhibition at 0.111 µM (Concentration 0.111 μM) [%]
"NS(=O)(=O)OC[C@H]1C[C@@H](Nc2ncncc2C(=O)c2cc([C@@H]3OCCc4cc(F)c(F)cc43)c(Cl)s2)C[C@@H]1O (single isomer, unassigned) [I-290a, [(1R,2S,4R)-4-{[5-({5-chloro-4-[(1R)-6,7-difluoro-3,4-dihydro-1H-isochromen-1-yl]-2-thienyl}carbonyl)pyrimidin-4-yl]amino}-2-hydroxycyclopentyl]methyl sulfamate or [(1R,2S,4R)-4-{[5-({5-chloro-4-[(1S)-6,7-difluoro-3,4-dihydro-1H-isochromen-1-yl]-2-thienyl}carbonyl)pyrimidin-4-yl]amino}-2-hydroxycyclopentyl]methyl sulfamate]",62,10 to 100,,,
"Cc1sc(C(=O)c2cncnc2N[C@@H]2C[C@H](COS(N)(=O)=O)[C@@H](O)C2)cc1[C@H]1OCCc2ccc(N3CCCC3)nc21 (mixture of isomers) [I-348, [(1R,2S,4R)-2-hydroxy-4-{[5-({5-methyl-4-[(8R)-2-(pyrrolidin-1-yl)-5,8-dihydro-6H-pyrano[3,4-b]pyridin-8-yl]-2-thienyl}carbonyl)pyrimidin-4-yl]amino}cyclopentyl]methyl sulfamate and [(1R,2S,4R)-2-hydroxy-4-{[5-({5-methyl-4-[(8S)-2-(pyrrolidin-1-yl)-5,8-dihydro-6H-pyrano[3,4-b]pyridin-8-yl]-2-thienyl}carbonyl)pyrimidin-4-yl]amino}cyclopentyl]methyl sulfamate]",97,< 10,,,
"NS(=O)(=O)OC[C@H]1C[C@@H](Nc2ncncc2C(=O)c2cc([C@@]3(C4CCCCC4)CCCO3)cs2)C[C@@H]1O (mixture of isomers) [I-166, [(1R,2S,4R)-4-{[5-({4-[(2S)-2-cyclohexyltetrahydrofuran-2-yl]-2-thienyl}carbonyl)pyrimidin-4-yl]amino}-2-hydroxycyclopentyl]methyl sulfamate and [(1R,2S,4R)-4-{[5-({4-[(2R)-2-cyclohexyltetrahydrofuran-2-yl]-2-thienyl}carbonyl)pyrimidin-4-yl]amino}-2-hydroxycyclopentyl]methyl sulfamate]",,,93,7.00 to 8.00,
"NS(=O)(=O)OC[C@H]1C[C@@H](Nc2ncncc2C(=O)c2cc(Cn3ccc4ccc(C(F)(F)F)cc43)cs2)C[C@@H]1O [I-184, [(1R,2S,4R)-2-hydroxy-4-({5-[(4-{[6-(trifluoromethyl)-1H-indol-1-yl]methyl}-2-thienyl)carbonyl]pyrimidin-4-yl}amino)cyclopentyl]methyl sulfamate]",,,,7.00 to 8.00,85
"CC(O)(c1cccc(Cl)c1)c1cc(C(=O)c2cncnc2N[C@@H]2C[C@H](COS(N)(=O)=O)[C@@H](O)C2)sc1Cl (single isomer, unassigned) [I-102a, [(1R,2S,4R)-4-{[5-({5-chloro-4-[(1R)-1-(3-chlorophenyl)-1-hydroxyethyl]-2-thienyl}carbonyl)pyrimidin-4-yl]amino}-2-hydroxycyclopentyl]methyl sulfamate or [(1R,2S,4R)-4-{[5-({5-chloro-4-[(1S)-1-(3-chlorophenyl)-1-hydroxyethyl]-2-thienyl}carbonyl)pyrimidin-4-yl]amino}-2-hydroxycyclopentyl]methyl sulfamate]",,,36,6.00 to 7.00,
"NS(=O)(=O)OC[C@H]1C[C@@H](Nc2ncncc2C(=O)c2cc(CN3CCC(F)(F)C3)cs2)C[C@@H]1O [I-228, [(1R,2S,4R)-4-{[5-({4-[(3,3-Difluoropyrrolidin-1-yl)methyl]-2-thienyl}carbonyl)pyrimidin-4-yl]amino}-2-hydroxycyclopentyl]methyl sulfamate]",,,,6.00 to 7.00,29
"NS(=O)(=O)OC[C@H]1C[C@@H](Nc2ncncc2C(=O)c2cc([C@@H]3NCCc4ccc(Cl)cc43)c(Cl)s2)[C@H](O)[C@@H]1O (single isomer, unassigned) [I-249b, [(1R,2R,3S,4R)-4-{[5-({5-chloro-4-[(1R)-7-chloro-1,2,3,4-tetrahydroisoquinolin-1-yl]-2-thienyl}carbonyl)pyrimidin-4-yl]amino}-2,3-dihydroxycyclopentyl]methyl sulfamate or [(1R,2R,3S,4R)-4-{[5-({5-chloro-4-[(1S)-7-chloro-1,2,3,4-tetrahydroisoquinolin-1-yl]-2-thienyl}carbonyl)pyrimidin-4-yl]amino}-2,3-dihydroxycyclopentyl]methyl sulfamate]",,,92,> 8.00,
"CN(C)[C@H](c1cccc(Cl)c1)c1csc(C(=O)c2cncnc2N[C@@H]2C[C@H](COS(N)(=O)=O)[C@@H](O)C2)c1 (single isomer, unassigned) [I-153b, [(1R,2S,4R)-4-{[5-({4-[(R)-(3-chlorophenyl)(dimethylamino)methyl]-2-thienyl}carbonyl)pyrimidin-4-yl]amino}-2-hydroxycyclopentyl]methyl sulfamate or [(1R,2S,4R)-4-{[5-({4-[(S)-(3-chlorophenyl)(dimethylamino)methyl]-2-thienyl}carbonyl)pyrimidin-4-yl]amino}-2-hydroxycyclopentyl]methyl sulfamate]",,,92,> 8.00,
"Cc1sc(C(=O)c2cncnc2N[C@@H]2C[C@H](COS(N)(=O)=O)[C@@H](O)C2)cc1[C@@H]1OCCn2cc(C(F)(F)F)nc21 (mixture of isomers) [I-337, [(1R,2S,4R)-2-hydroxy-4-{[5-({5-methyl-4-[(8S)-2-(trifluoromethyl)-5,6-dihydro-8H-imidazo[2,1-c][1,4]oxazin-8-yl]-2-thienyl}carbonyl)pyrimidin-4-yl]amino}cyclopentyl]methyl sulfamate and [(1R,2S,4R)-2-hydroxy-4-{[5-({5-methyl-4-[(8R)-2-(trifluoromethyl)-5,6-dihydro-8H-imidazo[2,1-c][1,4]oxazin-8-yl]-2-thienyl}carbonyl)pyrimidin-4-yl]amino}cyclopentyl]methyl sulfamate]",89,10 to 100,,,
"Cc1sc(C(=O)c2cncnc2N[C@@H]2C[C@H](COS(N)(=O)=O)[C@@H](O)C2)cc1C1OCCc2ccc(C(F)(F)F)nc21 (single isomer, unassigned) [I-297b, [(1R,2S,4R)-2-hydroxy-4-{[5-({5-methyl-4-[(8S)-2-(trifluoromethyl)-5,8-dihydro-6H-pyrano[3,4-b]pyridin-8-yl]-2-thienyl}carbonyl)pyrimidin-4-yl]amino}cyclopentyl]methyl sulfamate or [(1R,2S,4R)-2-hydroxy-4-{[5-({5-methyl-4-[(8R)-2-(trifluoromethyl)-5,8-dihydro-6H-pyrano[3,4-b]pyridin-8-yl]-2-thienyl}carbonyl)pyrimidin-4-yl]amino}cyclopentyl]methyl sulfamate]",99,< 10,,,
"Cc1sc(C(=O)c2cncnc2N[C@@H]2C[C@H](COS(N)(=O)=O)[C@@H](O)C2)cc1[C@@H]1OCCc2ccc(C3CC3)cc21 (single isomer, unassigned) [I-277a, [(1R,2S,4R)-4-{[5-({4-[(1R)-7-cyclopropyl-3,4-dihydro-1H-isochromen-1-yl]-5-methyl-2-thienyl}carbonyl)pyrimidin-4-yl]amino}-2-hydroxycyclopentyl]methyl sulfamate or [(1R,2S,4R)-4-{[5-({4-[(1S)-7-cyclopropyl-3,4-dihydro-1H-isochromen-1-yl]-5-methyl-2-thienyl}carbonyl)pyrimidin-4-yl]amino}-2-hydroxycyclopentyl]methyl sulfamate]",,,100,> 8.00,
"NS(=O)(=O)OC[C@H]1C[C@@H](Nc2ncncc2C(=O)c2cc([C@@H]3OCCc4ccc(Cl)nc43)c(Cl)s2)C[C@@H]1O (single isomer, unassigned) [I-276b, [(1R,2S,4R)-4-{[5-({5-chloro-4-[(8S)-2-chloro-5,8-dihydro-6H-pyrano[3,4-b]pyridin-8-yl]-2-thienyl}carbonyl)pyrimidin-4-yl]amino}-2-hydroxycyclopentyl]methyl sulfamate or [(1R,2S,4R)-4-{[5-({5-chloro-4-[(8R)-2-chloro-5,8-dihydro-6H-pyrano[3,4-b]pyridin-8-yl]-2-thienyl}carbonyl)pyrimidin-4-yl]amino}-2-hydroxycyclopentyl]methyl sulfamate]",,,101,> 8.00,
"Cc1cn(Cc2csc(C(=O)c3cncnc3N[C@@H]3C[C@H](COS(N)(=O)=O)[C@@H](O)C3)c2)c2ccccc12 [I-105, [(1R,2S,4R)-2-Hydroxy-4-{[5-({4-[(3-methyl-1H-indol-1-yl)methyl]-2-thienyl}carbonyl)pyrimidin-4-yl]amino}cyclopentyl]methyl sulfamate]",,,,> 8.00,96
"NS(=O)(=O)OC[C@H]1C[C@@H](Nc2ncncc2C(=O)c2cc(Cn3ccc4ccccc43)cs2)C[C@@H]1O [I-114, {(1R,2S,4R)-2-hydroxy-4-[(5-{[4-(1H-indol-1-ylmethyl)-2-thienyl]carbonyl}pyrimidin-4-yl)amino]cyclopentyl}methyl sulfamate]",,,,> 8.00,97
"CCc1cccc(Cc2cc(C(=O)c3cncnc3N[C@@H]3C[C@H](COS(N)(=O)=O)[C@@H](O)C3)sc2C)c1 [I-111, {(1R,2S,4R)-4-[(5-{[4-(3-ethylbenzyl)-5-methyl-2-thienyl]carbonyl}pyrimidin-4-yl)amino]-2-hydroxycyclopentyl}methyl sulfamate]",,,,> 8.00,98
"CN(C)Cc1sc(C(=O)c2cncnc2N[C@@H]2C[C@H](COS(N)(=O)=O)[C@@H](O)C2)cc1Cc1cccc(Cl)c1 [I-77, [(1R,2S,4R)-4-{[5-({4-(3-chlorobenzyl)-5-[(dimethylamino)methyl]-2-thienyl}carbonyl)pyrimidin-4-yl]amino}-2-hydroxycyclopentyl]methyl sulfamate]",,,,> 8.00,98
